Measured values from the NIST ThermoML archive (doi:10.1021/je400679k).

Experiment: xn = mol fraction of the nth substance listed
Conditions: 101 kPa, Liquid, Vibrating tube method

CNCCCN [N-methyl-1,3-diaminopropane] + O
mass density [kg/m3]
Conditions	283.15 K	293.15 K	303.15 K	313.15 K	323.15 K	333.15 K	343.15 K	353.15 K	363.15 K
x1 = 0.0051	998.237	996.63	993.985	990.476	986.217	981.304	975.769	969.7	963.045
x1 = 0.02	994.774	992.593	989.479	985.566	980.949	975.762	969.886	963.52	956.663
x1 = 0.04	992.84	989.571	985.557	980.873	975.589	969.758	963.394	956.509	949.281
x1 = 0.0599	991.664	987.189	982.161	976.614	970.587	964.115	957.198	949.885	942.172
x1 = 0.08	991.853	986.2	980.175	973.774	967.022	959.923	952.467	944.681	936.552
x1 = 0.1001	990.982	984.3	977.4	970.258	962.871	955.236	947.339	939.185	930.768
x1 = 0.1496	985.446	977.467	969.396	961.197	952.86	944.358	935.674	926.784	917.665
x1 = 0.2001	975.602	967.23	958.776	950.269	941.571	932.714	923.678	914.46	905.046
x1 = 0.2996	953.237	944.826	936.29	927.601	918.738	909.696	900.476	891.074	881.47
x1 = 0.4001	932.582	924.145	915.578	906.849	897.972	888.926	879.715	870.324	860.741
x1 = 0.4995	915.228	906.757	898.165	889.428	880.556	871.523	862.344	852.997	843.475
x1 = 0.5998	900.588	892.069	883.427	874.666	865.773	856.742	847.577	838.26	828.782
x1 = 0.6995	888.711	880.119	871.429	862.629	853.712	844.674	835.508	826.212	816.767
x1 = 0.7976	879.041	870.383	861.635	852.787	843.839	834.781	825.611	816.324	806.909
x1 = 0.901	869.652	860.902	852.078	843.17	834.181	825.1	815.925	806.659	797.262
x1 = 1	860.459	851.605	842.69	833.715	824.673	815.559	806.37	797.093	787.723

CNCCCN [N-methyl-1,3-diaminopropane] + CCN(CC)CCO
mass density [kg/m3]
Conditions	x1 = 0.0999	x1 = 0.2	x1 = 0.3001	x1 = 0.3997	x1 = 0.5	x1 = 0.5998	x1 = 0.7001	x1 = 0.8	x1 = 0.8996	x1 = 1
283.15 K	892.458	890.44	888.023	885.377	882.338	878.902	874.969	870.601	866.062	860.459
293.15 K	883.574	881.665	879.317	876.712	873.685	870.252	866.283	861.885	857.283	851.605
303.15 K	874.574	872.785	870.463	867.945	864.94	861.519	857.522	853.099	848.439	842.69
313.15 K	865.456	863.792	861.601	859.082	856.105	852.691	848.689	844.237	839.53	833.715
323.15 K	856.219	854.692	852.583	850.12	847.171	843.77	839.765	835.289	830.547	824.673
333.15 K	846.874	845.474	843.452	841.042	838.132	834.751	830.75	826.265	821.487	815.559
343.15 K	837.416	836.147	834.206	831.853	828.978	825.629	821.629	817.142	812.342	806.37
353.15 K	827.843	826.695	824.829	822.533	819.712	816.396	812.413	807.931	803.118	797.093
363.15 K	818.122	817.116	815.306	813.074	810.325	807.063	803.095	798.611	793.772	787.723
